Nine molecules from PubChem BioAssay AID226 (DTP/NCI, 2004) can be followed below.

SMILES strings stand for the structures. Where “and” joins values, the source holds several entries; their conditions need not be identical. Equal entries are not always repeated. Inconclusive results and toxic doses are left out.

The subject of this test is B6C3F1 mice, intracerebral ependymoblastoma, median survival T/C. Kind of test: NCI In Vivo Anticancer Drug Screen. Data for tumor model Ependymoblastoma (intracerebral) in B6C3F1 mice. Particulars: endpoint: median survival time, higher = longer survival. On the procedure:
The antitumor activity of compounds was measured in mice bearing transplantable tumors. Survival or tumor size were measured and the results are expressed as the measurement made in the treated group (T) divided by the measurement made in the vehicle treated control group (C). The tumor model used in this assay is Ependymoblastoma (intracerebral) in B6C3F1 mice

Setting [1] is: dose: 8.0 mg/kg/injection, schedule: Q01DX005 (ip), vehicle: Klucel (hydroxypropylcellulose) (HPC).
[2] abbreviates: dose: 16.0 mg/kg/injection, schedule: Q01DX005 (ip), vehicle: Klucel (hydroxypropylcellulose) (HPC).
The mark [3] stands for this setting: dose: 32.0 mg/kg/injection, schedule: Q01DX005 (ip), vehicle: Klucel (hydroxypropylcellulose) (HPC).
The mark [4] stands for this setting: dose: 64.0 mg/kg/injection, schedule: Q01DX005 (ip), vehicle: Klucel (hydroxypropylcellulose) (HPC).
Where [5] appears, read: dose: 128.0 mg/kg/injection, schedule: Q01DX005 (ip), vehicle: Klucel (hydroxypropylcellulose) (HPC).
Setting [6] is: dose: 256.0 mg/kg/injection, schedule: Q01DX005 (ip), vehicle: Klucel (hydroxypropylcellulose) (HPC).
[7] abbreviates: dose: 40.0 mg/kg/injection, schedule: Q01DX001 (ip), vehicle: saline.

`CCCC(=O)OCC1OC(n2cnc3c(=S)nc(N)[nH]c32)C(OC(=O)CCC)C1OC(=O)CCC` (configuration not stated): the T/C by setting is: (dose: 3.12 mg/kg/injection, schedule: Q01DX005 (ip), vehicle: Klucel (hydroxypropylcellulose) (HPC)) 102 % of control and 113 % of control; (dose: 6.25 mg/kg/injection, schedule: Q01DX005 (ip), vehicle: Klucel (hydroxypropylcellulose) (HPC)) 98 % of control and 104 % of control; (dose: 12.5 mg/kg/injection, schedule: Q01DX005 (ip), vehicle: Klucel (hydroxypropylcellulose) (HPC)) 106 % of control.

For the molecule `C[C@]1(O)CC[C@H]2[C@@H]3CCC4=CC(=O)CC[C@]4(C)[C@@]3(F)[C@@H](O)C[C@@]21C`, the T/C under setting [1] was 91 % of control and 102 % of control; the T/C under setting [2] is 96 % of control and 102 % of control; the T/C under setting [3] was 93 % of control; the T/C under setting [4] is 97 % of control and 98 % of control; the T/C under setting [5] was 92 % of control and 104 % of control; the T/C under setting [6] is 93 % of control and 97 % of control. Besides, the T/C (dose: 512.0 mg/kg/injection, schedule: Q01DX005 (ip), vehicle: Klucel (hydroxypropylcellulose) (HPC)) is 91 % of control.

Consider `ClC(Cl)=C(Cl)Cl`, for which the T/C is, setting by setting: (dose: 25.0 mg/kg/injection, schedule: Q01DX005 (ip), vehicle: other) 110 % of control and 122 % of control; (dose: 50.0 mg/kg/injection, schedule: Q01DX005 (ip), vehicle: other) 100 % of control and 113 % of control; (dose: 100.0 mg/kg/injection, schedule: Q01DX005 (ip), vehicle: other) 101 % of control and 105 % of control; (dose: 200.0 mg/kg/injection, schedule: Q01DX005 (ip), vehicle: other) 93 % of control and 97 % of control.

Regarding `Nc1nc(=S)c2ncn(C3OC(COC(=O)c4ccc(Cl)cc4)C(OC(=O)c4ccc(Cl)cc4)C3OC(=O)c3ccc(Cl)cc3)c2[nH]1` (configuration not stated), the T/C (dose: 18.75 mg/kg/injection, schedule: Q01DX005 (ip), vehicle: Klucel (hydroxypropylcellulose) (HPC)) is 101 % of control; the T/C (dose: 37.5 mg/kg/injection, schedule: Q01DX005 (ip), vehicle: Klucel (hydroxypropylcellulose) (HPC)) is 102 % of control; the T/C (dose: 75.0 mg/kg/injection, schedule: Q01DX005 (ip), vehicle: Klucel (hydroxypropylcellulose) (HPC)) is 98 % of control and 115 % of control.

On to `[N-]=[N+]=CC(=O)CCC(N)C(=O)O` (configuration not stated), for which the T/C (dose: 0.05 mg/kg/injection, schedule: Q01DX005 (ip), vehicle: saline) was 111 % of control; the T/C (dose: 0.06 mg/kg/injection, schedule: Q01DX005 (ip), vehicle: saline) was 93 % of control and 117 % of control; the T/C (dose: 0.1 mg/kg/injection, schedule: Q01DX005 (ip), vehicle: saline) was 97 % of control; the T/C (dose: 0.12 mg/kg/injection, schedule: Q01DX005 (ip), vehicle: saline) is 111 % of control and 114 % of control; the T/C (dose: 0.2 mg/kg/injection, schedule: Q01DX005 (ip), vehicle: saline) was 122 % of control.

On to `CCCCCCC(=O)O[C@H]1CC[C@H]2[C@@H]3CCC4=CC(=O)CC[C@]4(C)[C@H]3CC[C@]12C`, for which the T/C runs as follows: under setting [1], 101 % of control and 110 % of control; under setting [2], 92 % of control and 100 % of control; under setting [3], 95 % of control and 110 % of control; under setting [4], 108 % of control and 89 % of control; under setting [5], 95 % of control and 96 % of control; under setting [6], 97 % of control.

Regarding `O=P1(NCCCl)OCCCN1CCCl` (configuration not stated), the T/C (dose: 25.0 mg/kg/injection, schedule: Q01DX001 (ip), vehicle: water) is 101 % of control; the T/C under setting [7] was 102 % of control; the T/C (dose: 50.0 mg/kg/injection, schedule: Q01DX001 (ip), vehicle: water) was 104 % of control and 105 % of control; the T/C (dose: 80.0 mg/kg/injection, schedule: Q01DX001 (ip), vehicle: saline) was 101 % of control; the T/C (dose: 100.0 mg/kg/injection, schedule: Q01DX001 (ip), vehicle: water) is 101 % of control and 113 % of control; the T/C (dose: 160.0 mg/kg/injection, schedule: Q01DX001 (ip), vehicle: saline) was 102 % of control. For the same molecule, the T/C runs as follows: (dose: 200.0 mg/kg/injection, schedule: Q01DX001 (ip), vehicle: water) 114 % of control and 124 % of control; (dose: 320.0 mg/kg/injection, schedule: Q01DX001 (ip), vehicle: saline) 105 % of control; (dose: 400.0 mg/kg/injection, schedule: Q01DX001 (ip), vehicle: water) 119 % of control; (dose: 640.0 mg/kg/injection, schedule: Q01DX001 (ip), vehicle: saline) 118 % of control.

For `CN(N=O)C(N)=O`, the T/C by setting is: (dose: 0.5 mg/kg/injection, schedule: Q01DX005 (ip), vehicle: saline + alcohol) 98 % of control and 101 % of control and 107 % of control; (dose: 1.56 mg/kg/injection, schedule: Q01DX009 (ip), vehicle: saline) 161 % of control; (dose: 2.0 mg/kg/injection, schedule: Q#A X002 (ip), vehicle: saline + alcohol) 115 % of control; (dose: 3.12 mg/kg/injection, schedule: Q01DX009 (ip), vehicle: saline) 161 % of control; (dose: 4.0 mg/kg/injection, schedule: Q01DX001 (ip), vehicle: saline + alcohol) 118 % of control and 120 % of control; (dose: 4.0 mg/kg/injection, schedule: Q01DX005 (oral), vehicle: saline + alcohol) 150 % of control. Further, the T/C (dose: 4.0 mg/kg/injection, schedule: Q## X006 (ip), vehicle: saline + alcohol) was 156 % of control; the T/C (dose: 4.0 mg/kg/injection, schedule: Q#A X002 (ip), vehicle: saline + alcohol) was 113 % of control; the T/C (dose: 6.25 mg/kg/injection, schedule: Q01DX009 (ip), vehicle: saline) is 164 % of control; the T/C (dose: 8.0 mg/kg/injection, schedule: Q01DX001 (ip), vehicle: saline + alcohol) is 121 % of control; the T/C (dose: 8.0 mg/kg/injection, schedule: Q## X004 (ip), vehicle: saline + alcohol) was 150 % of control; the T/C (dose: 8.0 mg/kg/injection, schedule: Q## X006 (ip), vehicle: saline + alcohol) is 156 % of control. Also, the T/C (dose: 10.0 mg/kg/injection, schedule: Q01DX001 (ip), vehicle: saline + alcohol) was 157 % of control; the T/C (dose: 16.0 mg/kg/injection, schedule: Q01DX001 (oral), vehicle: saline + alcohol) was 123 % of control; the T/C under setting [2] was 118 % of control; the T/C (dose: 16.0 mg/kg/injection, schedule: Q01DX005 (oral), vehicle: saline + alcohol) was 150 % of control; the T/C (dose: 16.0 mg/kg/injection, schedule: Q## X006 (ip), vehicle: saline + alcohol) was 162 % of control; the T/C (dose: 20.0 mg/kg/injection, schedule: Q01DX001 (ip), vehicle: saline + alcohol) is 157 % of control. In addition, the T/C reads like this: (dose: 32.0 mg/kg/injection, schedule: Q01DX001 (ip), vehicle: saline + alcohol) 116 % of control; (dose: 32.0 mg/kg/injection, schedule: Q01DX001 (oral), vehicle: saline + alcohol) 118 % of control; (dose: 32.0 mg/kg/injection, schedule: Q01DX005 (oral), vehicle: saline + alcohol) 94 % of control; (dose: 32.0 mg/kg/injection, schedule: Q## X004 (ip), vehicle: saline + alcohol) 178 % of control; (dose: 40.0 mg/kg/injection, schedule: Q01DX001 (ip), vehicle: saline + alcohol) 161 % of control; under setting [7], 122 % of control. Further, the T/C is, setting by setting: (dose: 64.0 mg/kg/injection, schedule: Q01DX001 (oral), vehicle: saline + alcohol) 111 % of control; (dose: 80.0 mg/kg/injection, schedule: Q01DX001 (ip), vehicle: saline + alcohol) 183 % of control; (dose: 128.0 mg/kg/injection, schedule: Q01DX001 (oral), vehicle: saline + alcohol) 107 % of control and 121 % of control; (dose: 256.0 mg/kg/injection, schedule: Q01DX001 (oral), vehicle: saline + alcohol) 112 % of control.

Regarding `CC(=O)OCC1C(=O)OCC1C(=O)N1Cc2cc3ccccc3nc2C1` (configuration not stated), the T/C was 99 % of control (dose: 4.0 mg/kg/injection, schedule: Q01DX005 (ip), vehicle: saline with Tween-80); 103 % of control and 104 % of control (dose: 8.0 mg/kg/injection, schedule: Q01DX005 (ip), vehicle: saline with Tween-80); 104 % of control (dose: 16.0 mg/kg/injection, schedule: Q01DX005 (ip), vehicle: saline with Tween-80); 104 % of control (dose: 32.0 mg/kg/injection, schedule: Q01DX005 (ip), vehicle: saline with Tween-80); 90 % of control and 101 % of control (dose: 64.0 mg/kg/injection, schedule: Q01DX005 (ip), vehicle: saline with Tween-80); 90 % of control (dose: 128.0 mg/kg/injection, schedule: Q01DX005 (ip), vehicle: saline with Tween-80).
